According to PMC8872791, “MadR mediates acyl CoA-dependent regulation of mycolic acid desaturation in mycobacteria” (Proceedings of the National Academy of Sciences of the …, 2022):

What was measured:
Assay type in all cases: binding
[1] = target: T1, MadR (mycolic acid desaturase regulator, Rv0472c) (Mycobacterium tuberculosis, UniProt P9WMD9); assay: intrinsic tryptophan fluorescence quenching
[2] = target: T1, MadR (mycolic acid desaturase regulator, Rv0472c); assay: intrinsic tryptophan fluorescence quenching; EMSA shows release from desA1/desA2 promoters
[3] = target: T1, MadR (mycolic acid desaturase regulator, Rv0472c); assay: intrinsic tryptophan fluorescence quenching (binds, but does not release promoter DNA)

T1 sequence (P9WMD9 whole entry, looked up): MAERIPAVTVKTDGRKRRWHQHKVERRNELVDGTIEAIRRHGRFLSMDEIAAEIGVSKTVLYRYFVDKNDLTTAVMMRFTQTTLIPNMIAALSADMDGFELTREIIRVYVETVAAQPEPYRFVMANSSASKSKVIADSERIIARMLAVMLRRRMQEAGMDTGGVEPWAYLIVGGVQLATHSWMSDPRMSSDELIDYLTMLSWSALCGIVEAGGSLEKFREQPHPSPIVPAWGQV

Row | Compound | Kd [2] [µM] | Kd [3] [µM] | further results
1 | CCCCCCCCCCCCCC(=O)SCCNC(=O)CCNC(=O)[C@H](O)C(C)(C)COP(=O)(O)OP(=O)(O)OC[C@H]1O[C@@H](n2cnc3c(N)ncnc32)[C@H](O)[C@@H]1OP(=O)(O)O [C14:0-CoA, myristoyl-CoA] |  |  | Kd [1]: 12.4 µM
2 | CCCCCCCCCCCCCCCC(=O)SCCNC(=O)CCNC(=O)[C@H](O)C(C)(C)COP(=O)(O)OP(=O)(O)OC[C@H]1O[C@@H](n2cnc3c(N)ncnc32)[C@H](O)[C@@H]1OP(=O)(O)O [C16:0-CoA, palmitoyl-CoA] | 10.7 |  | 
3 | CCCCCCCCCCCCCCCCCC(=O)SCCNC(=O)CCNC(=O)[C@H](O)C(C)(C)COP(=O)(O)OP(=O)(O)OC[C@H]1O[C@@H](n2cnc3c(N)ncnc32)[C@H](O)[C@@H]1OP(=O)(O)O [C18:0-CoA, stearoyl-CoA] | 7.73 |  | 
4 | CCCCCCCC/C=C\CCCCCCCC(=O)SCCNC(=O)CCNC(=O)[C@H](O)C(C)(C)COP(=O)(O)OP(=O)(O)OC[C@H]1O[C@@H](n2cnc3c(N)ncnc32)[C@H](O)[C@@H]1OP(=O)(O)O [C18:1-CoA, oleoyl-CoA] |  | 9.55 | 
5 | CCCCC/C=C\C/C=C\CCCCCCCC(=O)SCCNC(=O)CCNC(=O)[C@H](O)C(C)(C)COP(=O)(O)OP(=O)(O)OC[C@H]1O[C@@H](n2cnc3c(N)ncnc32)[C@H](O)[C@@H]1OP(=O)(O)O [C18:2-CoA, linoleoyl-CoA] |  | 9.88 | 
6 | CCCCCCCCCCCCCCCCCCCCCCCC(=O)SCCNC(=O)CCNC(=O)[C@H](O)C(C)(C)COP(=O)(O)OP(=O)(O)OC[C@H]1O[C@@H](n2cnc3c(N)ncnc32)[C@H](O)[C@@H]1OP(=O)(O)O [C24:0-CoA, lignoceroyl-CoA] | 18.1 |  | 
